In US20050032124A1, “Identification of genotype-selective agents for treating Huntington's disease” (priority 2003, published 2005):

Key:
[1] = system: PC12 cells expressing Htt-Q103; assay: PC12 Htt-Q103 toxicity assay, Alamar Blue viability; format: cell-based, rat; parameters: rescue of Htt-Q103 toxicity: dose or concentration left out as unconfirmed
Excerpt: In the first cell system, Applicants developed, in collaboration with Dr. Erik Schweitzer (UCLA), a high-throughput screen (HTS) for compounds that rescue polyQ-induced apoptosis in immortalized rat neuronal cells (Suhr S T, et al., Proc Natl Acad Sci U S A 1998, 95: 7999-8004). PC12 rat pheochromocytoma cells were transfected with exon-1 of the human huntingtin gene containing either 25 or 103 N-terminal polyQ repeats. For enhanced stability the repeat portion consists of alternating CAG/CAA repeats (FIG. 11A). In addition, the expression construct incorporates enhanced green fluorescent protein (EGFP) as a reporter that enables tracking of the fusion proteins by direct immunofluorescence microscopy or biochemical (immunoprecipitation or Western blotting) detection with anti-EGFP antibodies (Schweitzer E S, et al., submitted). Finally, expression is regulated using the Bombyx mori ecdysone receptor and ecdysone analog, tebufenozide (Suhr S T, et al., Proc Natl Acad Sci U S A 1998, 95: 7999-8004). […]
The high-throughput screen developed by Applicants using the PC12 cell system uses the fluorescent viability dye Alamar Blue™ (FIG. 11B). […] The Z-factor is a commonly used quantitative index for maximal signal separation and minimal variability. […]

topoisomerase I (TOPI) = assay: Western blot for TOPI expression; format: cell-based, human; conditions: BJ primary cells
Excerpt: (A-C) Western blot of lysates from BJ, BJ-TERT, BJ-TERT/LT/ST, BJ-TERT/LT/ST/RAS^V12, BJ-TERT/LT/RAS^V12 and BJ-TERT/LT/RAS^V12/ST cells with an antibody directed against topoisomerase II (A) or TOPI (B, C). In panel (C), cells were transfected with an siRNA directed against TOPI, lamic A/C or with a control double strand DNA duplex of the same length (TOPI dsDNA). In each case, the blot was probed with an antibody against eIF-4E to identify differences in the amount of protein loaded. The relative amount is quantitated below each band. […] Cell number was determined after transfection with an siRNA directed against TOPI and treatment with the indicated concentrations of camptothecin. (E) Okadaic acid, an inhibitor of PP2A and other cellular phosphatases, sensitizes primary human cells to camptothecin. BJ primary cells were treated simultaneously with the indicated concentrations of both camptothecin and okadaic acid and the effect on calcein AM viability staining was determined. […] BJ primary cells were treated with the indicated concentrations of okadaic acid and the expression level of TOPI was determined by western blot. The relative amount is quantitated below each band. […]

BJ primary cells = assay: Sensitization of primary cells by co-treatment, calcein AM viability staining; format: cell-based, human; conditions: for effect on calcein AM viability staining, alone: BJ primary cells
Excerpt: (A-C) Western blot of lysates from BJ, BJ-TERT, BJ-TERT/LT/ST, BJ-TERT/LT/ST/RAS^V12, BJ-TERT/LT/RAS^V12 and BJ-TERT/LT/RAS^V12/ST cells with an antibody directed against topoisomerase II (A) or TOPI (B, C). In panel (C), cells were transfected with an siRNA directed against TOPI, lamic A/C or with a control double strand DNA duplex of the same length (TOPI dsDNA). In each case, the blot was probed with an antibody against eIF-4E to identify differences in the amount of protein loaded. The relative amount is quantitated below each band. […] Cell number was determined after transfection with an siRNA directed against TOPI and treatment with the indicated concentrations of camptothecin. (E) Okadaic acid, an inhibitor of PP2A and other cellular phosphatases, sensitizes primary human cells to camptothecin. BJ primary cells were treated simultaneously with the indicated concentrations of both camptothecin and okadaic acid and the effect on calcein AM viability staining was determined. […] BJ primary cells were treated with the indicated concentrations of okadaic acid and the expression level of TOPI was determined by western blot. The relative amount is quantitated below each band.
The compounds in group (iii) are camptothecin (CPT) and a novel compound from a combinatorial library, which Applicants have named erastin, for eradicator of RAS and ST-expressing cells (FIG. 2). Efficient CPT-induced and erastin-induced cell death requires the presence of both ST and RAS^V12 (FIGS. 3 and 4 and Table 1). Although CPT and erastin have a similar genetic basis of selectivity, they have distinct mechanisms of action. […] The phosphatase inhibitor okadaic acid was capable of sensitizing otherwise resistant BJ primary cells to CPT (FIG. 5E), possibly because okadaic acid upregulates TOPI (FIG. 5F).

[2] = system: BJELR cells (BJ-TERT/LT/ST/RAS^V12); assay: Screen of ACL library for suppressors of erastin activity (calcein AM); format: cell-based, human; conditions: 4 μg/ml compound, 5 μg/ml erastin
Protocol: ACL library comprises 1,540 compounds and all compounds were prepared in DMSO at […] in 384-well polypropylene plates and stored at −20° C. Replica daughter plates for each library plate were prepared using Zymark Scilone ALH. The daughter plates were diluted 50 fold in DMEM and compound concentration in the daughter plate is 80 μg/ml with 2% DMSO. In assay plate compound from the daughter plate is diluted 20 fold with cell suspension, thus final concentration of each compound is 4 μg/ml.
BJELR cells were seeded at 6000 cells/well (57μl) (for co-treatment screen) and 5000 cells/well (57 μl) (for pretreatment screen) in 384-well black, clear bottom plates using syringe bulk dispenser. For co-treatment suppressor screen, cells were treated with 3 μl of compound from the daughter plates of ACL library (final concentration in assay plate at 4 μg/ml) and at the same time treated with 5 μg/ml of erastin. Compound transfer was done using 384 fixed cannula head. Plates were incubated for 48 hours at 37° C. in incubator with 5% CO2. For the pretreatment screens, cells were pre-incubated with the compound from ACL daughter library plate for overnight and then treated with 5 μg/ml of erastin for further 48 hours. […] Fluorescence intensity was determined using Fusion platereader with filters centered in an excitation of 485 nm and emission of 535 nm. […]

[3] = system: BJELR cells (BJ-TERT/LT/ST/RAS^V12) versus BJEH cells (BJ-TERT); assay: Erastin analogs: activity and selectivity in tumor cells versus normal cells; format: cell-based, human
Excerpt: Applicants additionally tested 135 analogs of erastin for activity and selectivity in tumor cells versus normal cells. […] This compound was named erastin B (see FIG. 8). […] BJELR cells are BJ-TERT/LT/ST/RAS^V12 cells, and BJEH are BJ-TERT cells.

COC(=O)CC(NC(=O)OC(C)(C)C)C(=O)CF [BOC-D-FMK, Boc-Asp(Ome)-fluoromethyl ketone]
rescue of the Htt-Q103-induced cytotoxicity ([1]; 50 μM, added at the time of tebufenozide induction): ≥ 100% | rescue of Htt-Q103 toxicity ([1]; 72 hour induction with tebufenozide): rescues Htt-Q103 toxicity

C=C1[C@@H](O)[C@@H]2O[C@]3(CC[C@H](/C=C/[C@@H](C)[C@@H]4CC(C)=C[C@@]5(O[C@H](C[C@@](C)(O)C(=O)O)CC[C@H]5O)O4)O3)CC[C@H]2O[C@@H]1[C@@H](O)C[C@H](C)[C@H]1O[C@@]2(CCCCO2)CC[C@H]1C [okadaic acid]
expression of TOPI (western blot) (topoisomerase I (TOPI)): stimulates expression of TOPI | sensitization of cells to camptothecin (BJ primary cells; BJ (or BJ-TERT) cells, simultaneous treatment): renders BJ cells sensitive to camptothecin | sensitization of cells to erastin (BJ primary cells; BJ or BJ-TERT cells): does not render BJ or BJ-TERT cells sensitive to erastin | effect on calcein AM viability staining, alone (BJ primary cells; 3.4 nM): no effect on its own | effect on calcein AM viability staining, alone (BJ primary cells; highest concentrations tested): kills BJ cells

Cc1c(C)c2c(c(C)c1O)CC[C@@](C)(CCC[C@H](C)CCC[C@H](C)CCCC(C)C)O2 [α-tocopherol]
suppression of erastin activity [2]: suppress erastin activity

erastin B
activity and selectivity in tumor cells versus normal cells [3]: active and selective, but less potent than erastin
